Results as given in PubChem BioAssay (NCI).
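GI50 = concentration required for 50% inhibition of growth. TGI marks complete inhibition of growth.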

Experiments:
Assay in all cases: NCI anticancer screen, dose series, 384-well format
SK-MEL-28 melanoma = system: SK-MEL-28 melanoma
HCT-116 colon = system: HCT-116 colon
HT29 colon = system: HT29 colon
SK-MEL-5 melanoma = system: SK-MEL-5 melanoma
M14 melanoma = system: M14 melanoma
T-47D breast = system: T-47D breast
HCT-15 colon = system: HCT-15 colon
SK-MEL-2 melanoma = system: SK-MEL-2 melanoma
MDA-MB-231 breast = system: MDA-MB-231 breast
UO-31 renal = system: UO-31 renal
NCI-H23 lung = system: NCI-H23 lung
OVCAR-3 ovarian = system: OVCAR-3 ovarian
MOLT-4 leukemia = system: MOLT-4 leukemia

Work on `C[C@@H](c1ccc2nccn2c1)n1nnc2ncc(-c3cnn(C)c3)nc21` yielded a GI50 (SK-MEL-28 melanoma) greater than 100 µM, a TGI (SK-MEL-28 melanoma) greater than 100 µM and a GI50 (HCT-116 colon) greater than 100 µM. For the same compound, the TGI (HCT-116 colon) was greater than 100 µM, the GI50 (HT29 colon) was greater than 100 µM and the TGI (HT29 colon) was greater than 100 µM. The GI50 (SK-MEL-5 melanoma) was greater than 92.7 µM, the TGI (SK-MEL-5 melanoma) was greater than 100 µM and the GI50 (M14 melanoma) was greater than 100 µM. For the same compound, the TGI (M14 melanoma) was greater than 100 µM, the GI50 (T-47D breast) was greater than 61.2 µM and the TGI (T-47D breast) was greater than 100 µM. The GI50 (HCT-15 colon) was greater than 100 µM, the TGI (HCT-15 colon) was greater than 100 µM and the GI50 (SK-MEL-2 melanoma) was greater than 100 µM. The TGI (SK-MEL-2 melanoma) was greater than 100 µM, the GI50 (MDA-MB-231 breast) was greater than 100 µM and the TGI (MDA-MB-231 breast) was greater than 100 µM. It also gave a GI50 (UO-31 renal) greater than 100 µM, a TGI (UO-31 renal) greater than 100 µM and a GI50 (NCI-H23 lung) of 20.6 µM. It also gave a TGI (NCI-H23 lung) greater than 100 µM, a GI50 (OVCAR-3 ovarian) greater than 100 µM and a TGI (OVCAR-3 ovarian) greater than 100 µM. For the same compound, the GI50 (MOLT-4 leukemia) was 51.5 µM and the TGI (MOLT-4 leukemia) was greater than 100 µM.
